From US20240261294A1, “METHOD FOR TREATING IDH INHIBITOR-RESISTANT SUBJECTS” (Eli Lilly and Company, priority 2021, published 2024)
Residue numbers refer to the chain shown, from its start. Read-outs that look alike come from different tables or passages of the source.

Target: T1, IDH2 R140Q + 1319M trans (Homo sapiens, UniProt P48735, I319M/R140Q)
T1 sequence (P48735 40-452 R140Q): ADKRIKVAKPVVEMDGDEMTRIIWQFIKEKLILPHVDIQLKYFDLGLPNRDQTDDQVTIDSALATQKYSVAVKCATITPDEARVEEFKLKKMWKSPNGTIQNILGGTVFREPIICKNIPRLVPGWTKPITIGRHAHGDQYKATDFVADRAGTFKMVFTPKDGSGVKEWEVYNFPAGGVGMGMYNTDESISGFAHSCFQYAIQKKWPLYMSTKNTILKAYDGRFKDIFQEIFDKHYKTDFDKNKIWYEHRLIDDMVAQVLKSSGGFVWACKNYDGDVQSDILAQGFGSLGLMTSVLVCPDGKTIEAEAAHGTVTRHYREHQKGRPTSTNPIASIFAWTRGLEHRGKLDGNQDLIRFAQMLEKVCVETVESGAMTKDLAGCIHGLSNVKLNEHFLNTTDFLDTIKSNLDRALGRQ
T1 sequence (P48735 40-452 I319M): T1 sequence (P48735 40-452 R140Q) with Q101R, I280M
Experiment: Inhibition of 2-HG production in IDH2 mutant U-87 MG cells
Format: cell-based
Details: 72 hours incubation, 12.5K cells/well

- IC50 (IDH2 R140Q + 1319M trans, 150 μl media/well, read-out: IC50, inhibition of 2-HG production): 12.7 nM
- IC50 (IDH2 R140Q_I319M trans, read-out: Relative IC50 (nM) Mean, inhibition of 2-HG production): 18 nM
Compound: C=CC(=O)N1CCN([C@@H](CC2CC2)c2ccc([C@H](C)Nc3ncc4c(n3)N(CC)C(=O)OC4)cc2)CC1 [Compound A, 7-[[(1S)-1-[4-[(1S)-2-cyclopropyl-1-(4-prop-2-enoylpiperazin-1-yl)ethyl]phenyl]ethyl]amino]-1-ethyl-4H-pyrimido[4,5-d][1,3]oxazin-2-one]
